Reference: publication PMC3559007 (Neuron, 2013)
Substitutions are numbered along the chain they refer to. Where two headings read alike, the source gives them in different places.

Columns and labels:
human Hv1 channel [1] = molecular target: T1, human Hv1 channel (Homo sapiens, UniProt Q96D96); assay: Inside-out patch clamp of proton currents, Xenopus oocytes expressing human Hv1; assay type: cell-based; conditions: for Inhibition of Hv1 proton current compared with 2GBI: 200 µM intracellular, inside-out patch, +120 mV
T1 sequence (Q96D96 1-273): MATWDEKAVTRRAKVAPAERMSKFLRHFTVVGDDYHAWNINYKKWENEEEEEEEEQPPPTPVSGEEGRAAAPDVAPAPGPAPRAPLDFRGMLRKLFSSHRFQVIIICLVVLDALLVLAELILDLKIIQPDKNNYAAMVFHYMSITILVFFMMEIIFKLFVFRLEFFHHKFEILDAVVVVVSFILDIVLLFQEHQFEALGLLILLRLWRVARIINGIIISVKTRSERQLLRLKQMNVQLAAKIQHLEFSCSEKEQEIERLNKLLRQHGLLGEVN

Hv1 F150A = molecular target: T2, Hv1 F150A (Homo sapiens, UniProt Q96D96, F150A); assay: Inside-out patch clamp, inhibition of Hv1 F150A mutant; assay type: cell-based; conditions: 1 µM 2GBI, 500 µM guanidinium, 7.9 mM magnesium, intracellular
T2 sequence (Q96D96 1-273 F150A): T1 sequence (Q96D96 1-273) with F150A

human Hv1 channel [2] = molecular target: T1, human Hv1 channel; conditions: cited from earlier work; for Inhibition of Hv1 channel by intracellular quaternary ammonium ions: ref Musset et al., 2011, Ramsey et al., 2006
[3] = system: F150A-WT linked Hv1 heterodimers; assay: Inside-out patch clamp, partial block of linked F150A-WT Hv1 heterodimers; assay type: cell-based, human; conditions: 2 µM 2GBI, +120 mV

## N=C(N)N [Compound 1, Guanidine]
Human Hv1 channel [1]
  Concentration range effective at inhibiting proton currents: millimolar concentration range
Hv1 F150A
  Difference in binding affinity between F150A and wild type channels: much smaller difference
Human Hv1 channel [2]; ref Tombola et al., 2008
  Inhibition of Hv1 and effect on activation curve: inhibit Hv1 without shifting the channel’s activation curve

## N=C(N)Nc1nc2ccccc2[nH]1 [Compound 7, 2-guanidinobenzimidazole]
[3]
  Total inhibition of the initial current: ~ 50%
[3]; estimated from dissociation constants of homodimers
  Estimated fraction of wild type subunits blocked: ~6%

## CN(C)C(=N)N=C(N)N [Compound 8, metformin, reference compound]
Human Hv1 channel [1]
  Inhibition of Hv1 proton current compared with 2GBI: not as effective as 2GBI

## Cc1nc(NC(=N)N)nc2ccccc12 [Compound 9, 2-guanidino-4-methylquinazoline]
Human Hv1 channel [1]
  Inhibition of Hv1 proton current compared with 2GBI: not as effective as 2GBI

## CC(=O)N(C(=N)NC(=N)N)c1ccccc1 [Compound 10, N-(guanidino-imino-methyl)-N-phenylacetamide]
Human Hv1 channel [1]
  Inhibition of Hv1 proton current compared with 2GBI: not as effective as 2GBI

## N=C(N)Nc1nc2ccccc2o1 [Compound 11, 1-(1,3-benzoxazol-2-yl)guanidine]
Human Hv1 channel [1]
  IC50: ~9 mM

## N=C(N)Nc1nc2ccccc2s1 [Compound 12, 1-(1,3-benzothiazol-2-yl)guanidine]
Human Hv1 channel [1]
  Inhibition of Hv1 proton current compared with 2GBI: almost as effectively as 2GBI

## CC[N+](CC)(CC)CC [TEA^+, tetraethylammonium]
Human Hv1 channel [2]
  Inhibition of Hv1 channel by intracellular quaternary ammonium ions: do not inhibit

## C[N+](C)(C)C [TMA^+]
Human Hv1 channel [2]
  Inhibition of Hv1 channel by intracellular quaternary ammonium ions: do not inhibit

## [Mg+2] [magnesium, reference compound]
Human Hv1 channel [1]; wild type Hv1, GBOZ curve extrapolated above solubility limit
  IC50: ~9 mM
Hv1 F150A
  Difference in binding affinity between F150A and wild type channels: no difference
